Data reported in patent US12178892B2, “Compounds for positron emission tomography” (Endocyte, Inc., priority 2013, dated 2024).

Experiments:
[1] = tested on: A549 tumor xenografts; assay: Ex vivo (postmortem) biodistribution, A549 tumor xenografts; set-up: species or system nude mice; settings: mouse
From the text: It is to be understood that the vertical axis has been expanded and that the kidney data is truncated. […] It is to be understood that the vertical axis has been expanded and that the kidney data is truncated. […] EXAMPLE. […] Without being bound by theory, it is believed herein that the highest accumulation of radioactivity in kidneys, along with the relative low uptake of radiotracer in the hepatobiliary system i.e. liver, bile and intestine/feces supports that renal elimination is the predominant excretion pathway.

[2] = tested on: KB tumor xenografts; assay: Ex vivo (postmortem) biodistribution, KB tumor xenografts; format: in vivo, nude mice; settings: for FR specificity: in both KB xenograft tumor tissues and A549 xenograft tumor tissues; for radiotracer level in kidneys: mouse, in vivo
From the text: EXAMPLE. […] Without being bound by theory, it is believed herein that the highest accumulation of radioactivity in kidneys, along with the relative low uptake of radiotracer in the hepatobiliary system i.e. liver, bile and intestine/feces supports that renal elimination is the predominant excretion pathway.

[3] = tested on: FR; assay: Binding in A549 xenograft homogenates; settings: A549 xenografts
[4] = target: T1, FR (Homo sapiens, UniProt P15328); assay: Binding to FR in Cal51 xenograft tumor crude homogenate (concentration dependent binding, Scatchard analysis); settings: Cal51 xenografts
T1 construct: to FR in KB and Cal51 tumor crude homogenate; from tissue; host or cells: KB and Cal51 tumour xenograft crude homogenates
Procedure: (§1) EXAMPLE. The specificity of the radionuclide containing conjugates binding to FR is evaluated against KB xenografts homogenates and Cal51 xenografts homogenates. […] Scatchard analyses were also performed. […] Without being bound by theory, it is believed herein that the moderate expression of FR in Cal51 xenografts accounts for the lower binding affinity. Binding affinities of ^18F-AIF-QC07017 (2) to FR in KB and Cal51 tumor crude homogenate.

[5] = target: T1, FR; assay: Binding to FR in KB xenograft tumor crude homogenate (concentration dependent binding, Scatchard analysis); settings: for non-specific binding: KB homogenates; for binding sites and affinity (Scatchard analyses): all cell xenografts
Procedure: as §1

[6] = tested on: KB tumor xenografts; assay: μPET imaging under baseline and competed conditions in nude mice bearing KB tumor xenografts; format: in vivo; settings: competed group, 100 μg of folic acid 10 min before i.v. injection
Procedure: EXAMPLE. μPET imaging was performed on nude mice bearing KB tumor xenografts under baseline and competed conditions to evaluate the in vivo binding specificity of ^18F-AIF-QC07017 (2) to FR. Nude mice bearing KB tumor xenografts on their left shoulder were injected with 0.30-0.40 mCi (2). […] Without being bound by theory, it is believed herein that the high radioactivity found in kidneys was due to the uptake mediated by FR that is expressed in the proximal tubule cells in kidneys and the potential accumulation of radiotracer via renal excretion, which was further supported by the biodistribution studies described herein. With the exception of the liver, significant uptake in other organs was not observed.

[7] = tested on: PSMA(+) prostate cancer tissues; assay: Binding to PSMA(+) prostate cancer tissues (tissue imaging); settings: compared to ^67Ga-DKFZ-PSMA11
Procedure: (§2) EXAMPLE. In vitro evaluation of DUPA-EAOA-Phe-Phe-NOTA-^68Ga radiotracer (^68Ga-QC08009). ^67Ga has a longer half life than ^68Ga (about 3.3 days versus about 68 minutes, respectively). Thus, ^67Ga is used as a surrogate of ^68Ga for in vitro evaluation of Kd values and tissue imaging. It is to be understood that the in vitro evaluation of Kd values and tissue imaging observed for ^67Ga is predictive of ^68Ga. DUPA-EAOA-Phe-Phe-NOTA-^67Ga (67Ga-NOTA-LC-PSMA2) was prepared in nearly quantitative radiochemical yield. […] PC3 is a PSMA (−) cell line; LnCap is a PSMA (+) cell line; and PIP—PC3 is a transfect cell line with higher PSMA expression.

[8] = target: T2, PSMA (Homo sapiens, UniProt Q04609); assay: In vitro study in PSMA(−) and PSMA(+) cell lines, Kd; format: cell-based; settings: PSMA(−) cell line (PC3) and PSMA(+) cell lines (LnCaP and PIP—PC3); ^67Ga as surrogate of ^68Ga
T2 construct: LnCap is a PSMA (+) cell line; and PIP—PC3 is a transfect cell line with higher PSMA expression; endogenous in cells; host or cells: LnCaP (endogenous) and PIP-PC3 (PSMA-transfected PC3); PC3 as the PSMA(-) control
Procedure: as §2

[9] = tested on: LnCaP cells; assay: In vitro uptake by LnCaP cells; format: cell-based
Procedure: as §2

[10] = tested on: PSMA (+) LnCaP xenografts; assay: in vivo; set-up: species or system mice; settings: mouse
From the text: (§3) EXAMPLE. In vivo PET imaging and BioD study of DUPA-EAOA-Phe-Phe-NOTA-^68Ga radiotracer (^68Ga-QC08009). […] Without being bound by theory, it is believed herein that the data support that the primary elimination pathway is in urine.

[11] = in vivo; set-up: species or system mice; settings: mouse, total radioactivity
From the text: as §3

[12] = tested on: PC3 cells; assay: In vitro uptake by PC3 cells; format: cell-based; settings: PC3, PSMA (−) cell line
Procedure: as §2

[13] = tested on: PIP—PC3 cells; assay: In vitro uptake by PIP—PC3 cells; format: cell-based
Procedure: as §2

[14] = KB xenografts, tumor crude homogenate

T1 sequence (P15328 25-234): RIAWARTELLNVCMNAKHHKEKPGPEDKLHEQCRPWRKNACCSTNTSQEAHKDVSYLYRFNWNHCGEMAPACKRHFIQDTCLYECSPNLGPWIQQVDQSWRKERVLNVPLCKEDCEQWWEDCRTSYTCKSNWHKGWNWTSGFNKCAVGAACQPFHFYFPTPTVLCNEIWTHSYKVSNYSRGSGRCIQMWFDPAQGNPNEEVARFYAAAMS
T2 sequence (Q04609 whole entry): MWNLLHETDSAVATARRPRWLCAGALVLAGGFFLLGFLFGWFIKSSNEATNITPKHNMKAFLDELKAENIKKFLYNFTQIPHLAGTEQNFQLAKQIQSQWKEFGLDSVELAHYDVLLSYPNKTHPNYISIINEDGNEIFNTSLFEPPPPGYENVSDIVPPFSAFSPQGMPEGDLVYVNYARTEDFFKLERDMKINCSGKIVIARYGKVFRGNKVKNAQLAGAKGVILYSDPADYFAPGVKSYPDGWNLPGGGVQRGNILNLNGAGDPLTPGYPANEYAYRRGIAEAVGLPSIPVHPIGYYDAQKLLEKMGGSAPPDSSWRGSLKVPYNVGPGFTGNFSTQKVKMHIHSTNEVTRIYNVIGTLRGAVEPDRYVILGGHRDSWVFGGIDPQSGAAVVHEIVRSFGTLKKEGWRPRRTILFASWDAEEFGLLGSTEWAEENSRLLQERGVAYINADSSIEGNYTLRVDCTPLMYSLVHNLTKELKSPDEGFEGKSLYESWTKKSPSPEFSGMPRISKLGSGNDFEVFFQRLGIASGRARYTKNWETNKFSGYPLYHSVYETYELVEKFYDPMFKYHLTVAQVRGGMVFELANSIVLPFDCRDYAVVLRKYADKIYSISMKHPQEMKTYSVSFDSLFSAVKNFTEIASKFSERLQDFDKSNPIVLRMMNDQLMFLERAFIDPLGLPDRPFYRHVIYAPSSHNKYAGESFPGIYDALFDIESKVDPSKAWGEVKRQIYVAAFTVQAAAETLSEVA

Structure (SMILES)	binding affinity (in words) [4]	Bmax ([4]; tumor crude homogenate)	binding affinity (in words) ([5]; KB xenografts)	Bmax [5, 14]	binding sites and affinity (Scatchard analyses) [5]	accumulation in A549 xenograft tumor tissues [1]	FR specificity [2]	radiotracer level in kidneys [2]	binding affinity (in words) [3]	non-specific binding [5]	further results
Nc1nc2ncc(CNc3ccc(C(=O)N[C@@H](CCC(=O)NCCOCCOCCOCCOCCOCCOCCOCCOCCOCCOCCOCCOCCC(=O)NCCNC(=O)CN4CCN(CC(=O)O)CCN(CC(=O)O)CC4)C(=O)O)cc3)nc2c(=O)[nH]1 (Al18F complex, metal not drawn) [^18F-AIF-QC07043]						comparable to the liver	comparable to etarfolatide (EC20)	highest signal	lowest binding affinity		
O=C(O)CCC(NC(=O)NC(CCC(=O)NCCCCCCCC(=O)N[C@@H](Cc1ccccc1)C(=O)N[C@@H](Cc1ccccc1)C(=O)NCCNC(=O)CN1CCN(CC(=O)O)CCN(CC(=O)O)CC1)C(=O)O)C(=O)O (single isomer, unassigned) [^67Ga-NOTA-LC-PSMA2, DUPA-EAOA-Phe-Phe-NOTA-^67Ga, metal not drawn]											binding to PSMA(+) prostate cancer tissues [7]: superior binding; Kd [8]: 8.45 ± 2.16 nM
O=C(O)CCC(NC(=O)NC(CCC(=O)NCCCCCCCC(=O)N[C@@H](Cc1ccccc1)C(=O)N[C@@H](Cc1ccccc1)C(=O)NCCNC(=O)CN1CCN(CC(=O)O)CCN(CC(=O)O)CC1)C(=O)O)C(=O)O (single isomer, unassigned) [^68Ga-QC08009, DUPA-EAOA-Phe-Phe-NOTA-^68Ga, metal not drawn]											uptake by cells ([9]; PSMA (+) cell line): substantial; uptake by cells when competed ([9]; competing ligand): blocked by competing ligand; accumulation in kidneys [10]: minor accumulation; tissue uptake dose [11]: 4.29 %ID; uptake by cells [12]: minimal; uptake by cells when competed ([12]; competing ligand): did not change when competed; uptake by cells when competed ([13]; PIP—PC3, competing ligand): blocked by competing ligand; uptake by cells ([13]; PIP—PC3, transfect cell line with higher PSMA expression): substantial, with PIP—PC3 cells showing the highest uptake

Now from value to compound, other results behind:

binding affinity (in words) [4]	Bmax ([4]; tumor crude homogenate)	binding affinity (in words) ([5]; KB xenografts)	Bmax [5, 14]	binding sites and affinity (Scatchard analyses) [5]	Structure (SMILES)	accumulation in A549 xenograft tumor tissues [1]	FR specificity [2]	radiotracer level in kidneys [2]	binding affinity (in words) [3]	non-specific binding [5]	further results
Moderate binding affinity	13 nM	high specific binding affinity	241 nM	bound one site with high affinity	Nc1nc2ncc(CNc3ccc(C(=O)N[C@@H](CCC(=O)NCCOCCOCCOCCOCCOCCOCCOCCOCCOCCOCCOCCOCCC(=O)NCCNC(=O)CN4CCN(CC(=O)O)CCN(CC(=O)O)CC4)C(=O)O)cc3)nc2c(=O)[nH]1 [^18F-AIF-QC07043]					Significant non-specific binding was not observed	
Moderate binding affinity	36 nM	high specific binding affinity	511 nM	bound one site with high affinity	Nc1nc2ncc(CNc3ccc(C(=O)N[C@@H](CCC(=O)NCCOCCOCCNC(=O)CN4CCN(CC(=O)O)CCN(CC(=O)O)CC4)C(=O)O)cc3)nc2c(=O)[nH]1 [^18F-AIF-QC07017]	comparable to the liver	comparable to etarfolatide (EC20)	highest signal	lowest binding affinity	Significant non-specific binding was not observed	tumor uptake under competition with folic acid [6]: completely inhibited; Kd ([4]; tumor crude homogenate): 1.1 nM; Kd [5, 14]: 0.7 nM; binding by self competition ([5]; human tumor xenografts (KB and Cal51)): Displaceable and saturable binding
